Results taken from US8008298B2, “Pyrrolopyrazine kinase inhibitors” (Roche Palo Alto, priority 2008, dated 2011).

melting point	Structure (SMILES)
240 to 242 °C	CC(C)(C)C(=O)c1c[nH]c2ncc(-c3cccc(N4CCN(C(=O)CC#N)CC4)c3)nc12 [Example 90, 3-(4-{3-[7-(2,2-Dimethyl-propionyl)-5H-pyrrolo[2,3-b]pyrazin-2-yl]-phenyl}-piperazin-1-yl)-3-oxo-propionitrile]
237.8 to 238.4 °C	COc1cc(-c2cnc3[nH]cc(C(=O)O)c3n2)cc(OC)c1OC [Example I-490, 2-(3,4,5-Trimethoxy-phenyl)-5H-pyrrolo[2,3-b]pyrazine-7-carboxylic acid]
266 to 267 °C	CC(=O)N1CCN(c2ccc(-c3cnc4[nH]cc(C(=O)C(C)(C)C)c4n3)cc2)CC1 [Example I-99, 1-{2-[4-(4-Acetyl-piperazin-1-yl)-phenyl]-5H-pyrrolo[2,3-b]pyrazin-7-yl}-2,2-dimethyl-propan-1-one]
226 to 228 °C	CC(=O)Nc1ccc(S(=O)(=O)Nc2cccc(-c3cnc4[nH]cc(C(=O)C(C)(C)C)c4n3)c2)cc1 [Example I-412, N-(4-{3-[7-(2,2-Dimethyl-propionyl)-5H-pyrrolo[2,3-b]pyrazin-2-yl]-phenylsulfamoyl}-phenyl)-acetamide]
277 to 278 °C	CC(C)(C)C(=O)c1c[nH]c2ncc(-c3ccc(S(N)(=O)=O)cc3)nc12 [Example 140, 4-[7-(2,2-Dimethyl-propionyl)-5H-pyrrolo[2,3-b]pyrazin-2-yl]-benzenesulfonamide]
217 to 219 °C	CC(C)(C)C(=O)c1c[nH]c2ncc(-c3cccc(NS(=O)(=O)c4ccccc4)c3)nc12 [Example 234, N-{3-[7-(2,2-Dimethyl-propionyl)-5H-pyrrolo[2,3-b]pyrazin-2-yl]-phenyl}-benzenesulfonamide]
243 to 244 °C	CNC(=O)c1cccc(-c2cnc3[nH]cc(C(=O)CC(C)C)c3n2)c1 [Example I-9, N-Methyl-3-[7-(3-methyl-butyryl)-5H-pyrrolo[2,3-b]pyrazin-2-yl]-benzamide]
290 to 292.4 °C	COc1ccc(-c2cnc3[nH]cc(C(N)=O)c3n2)cc1OC [Example 18, 2-(3,4-Dimethoxy-phenyl)-5H-pyrrolo[2,3-b]pyrazine-7-carboxylic acid amide]
279 to 280 °C	CC(C)(C)C(=O)c1c[nH]c2ncc(-c3cccc(N4CCS(=O)(=O)CC4)c3)nc12 [Example 230, 1-{2-[3-(1,1-Dioxo-1lambda*6*-thiomorpholin-4-yl)-phenyl]-5H-pyrrolo[2,3-b]pyrazin-7-yl}-2,2-dimethyl-propan-1-one]
192 to 193 °C	CC1(C(=O)c2c[nH]c3ncc(-c4cccc(N5CCCC5)c4)nc23)CCCCCC1 [Example 160, (1-Methyl-cycloheptyl)-[2-(3-pyrrolidin-1-yl-phenyl)-5H-pyrrolo[2,3-b]pyrazin-7-yl]-methanone]
222 to 223 °C	COc1cc(-c2cnc3[nH]cc(C(=O)C(C)(CO)CO)c3n2)cc(OC)c1OC [Example 58, 3-Hydroxy-2-hydroxymethyl-2-methyl-1-[2-(3,4,5-trimethoxy-phenyl)-5H-pyrrolo[2,3-b]pyrazin-7-yl]-propan-1-one]
223 to 225 °C	CC(C)(C)C(=O)c1c[nH]c2ncc(-c3cccc(N4CCC(S(C)(=O)=O)C4)c3)nc12 (stereo not drawn) [Example 109, 1-{2-[3-(3-Methanesulfonyl-pyrrolidin-1-yl)-phenyl]-5H-pyrrolo[2,3-b]pyrazin-7-yl}-2,2-dimethyl-propan-1-one]
211 to 213 °C	CCN(CC)c1ccc(-c2cnc3[nH]cc(C(=O)C4(C)CCCCC4)c3n2)cc1 [Example 173, [2-(4-Diethylamino-phenyl)-5H-pyrrolo[2,3-b]pyrazin-7-yl]-(1-methyl-cyclohexyl)-methanone]
244 to 246 °C	COc1cc(-c2cnc3[nH]cc(C(=O)C4(C)CCCC4)c3n2)cc(OC)c1OC [Example 147, (1-Methyl-cyclopentyl)-[2-(3,4,5-trimethoxy-phenyl)-5H-pyrrolo[2,3-b]pyrazin-7-yl]-methanone]
205 to 206 °C	CC(C)(C)C(=O)c1c[nH]c2ncc(-c3cccc(NCCS(C)(=O)=O)c3)nc12 [Example I-407, 1-{2-[3-(2-Methanesulfonyl-ethylamino)-phenyl]-5H-pyrrolo[2,3-b]pyrazin-7-yl}-2,2-dimethyl-propan-1-one]
211 to 212 °C	COc1ccc(-c2cnc3[nH]cc(C(=O)NC4CCN(C(C)=O)C4)c3n2)cc1OC (stereo not drawn) [Example 26, 2-(3,4-Dimethoxy-phenyl)-5H-pyrrolo[2,3-b]pyrazine-7-carboxylic acid (1-acetyl-pyrrolidin-3-yl)-amide]
219.9 to 221.1 °C	CC(C)(C)C(=O)c1c[nH]c2ncc(-c3cccc(-c4ccccc4)c3)nc12 [Example I-335, 1-(2-Biphenyl-3-yl-5H-pyrrolo[2,3-b]pyrazin-7-yl)-2,2-dimethyl-propan-1-one]
212 to 213 °C	CC(C)(C)OC(=O)N1CCN(c2cccc(-c3cnc4[nH]cc(C(=O)C5(C)CCCCC5)c4n3)c2)CC1 [Example 175, 4-{3-[7-(1-Methyl-cyclohexanecarbonyl)-5H-pyrrolo[2,3-b]pyrazin-2-yl]-phenyl}-piperazine-1-carboxylic acid tert-butyl ester]

melting point	Structure (SMILES)
248 to 249 °C	CC(C)(C)C(=O)c1c[nH]c2ncc(-c3cccc(C#N)c3)nc12 [Example 237, 3-[7-(2,2-Dimethyl-propionyl)-5H-pyrrolo[2,3-b]pyrazin-2-yl]-benzonitrile]
227 to 229 °C	COc1cc(-c2cnc3[nH]cc(C(=O)C(C)(C)CO)c3n2)cc(OC)c1OC [Example 165, 3-hydroxy-2,2-dimethyl-1-[2-(3,4,5-trimethoxy-phenyl)-5H-pyrrolo[2,3-b]pyrazin-7-yl]-propan-1-one]
277 to 278 °C	CC(C)(C)C(=O)c1c[nH]c2ncc(-c3cccc(-c4ccn[nH]4)c3)nc12 [Example I-126, 2,2-Dimethyl-1-{2-[3-(2H-pyrazol-3-yl)-phenyl]-5H-pyrrolo[2,3-b]pyrazin-7-yl}-propan-1-one]
179 to 180 °C	CCCOc1cccc(-c2cnc3[nH]cc(C(=O)C(C)(C)C)c3n2)c1 [Example 139, 2,2-Dimethyl-1-[2-(3-propoxy-phenyl)-5H-pyrrolo[2,3-b]pyrazin-7-yl]-propan-1-one]
239 to 241 °C	CC(C)(C)C(=O)c1c[nH]c2ncc(-c3cccc(N4CCC5(CCSC5)C4)c3)nc12 (stereo not drawn) [Example I-168, 2,2-Dimethyl-1-{2-[3-(2-thia-7-aza-spiro[4.4]non-7-yl)-phenyl]-5H-pyrrolo[2,3-b]pyrazin-7-yl}-propan-1-one]
259 to 260 °C	COc1cc(-c2cnc3[nH]cc(C(=O)C(C)(C)C)c3n2)cc(N2CC[S+]([O-])CC2)c1 [Example 269, 1-{2-[3-Methoxy-5-(1-oxo-1lambda*4*-thiomorpholin-4-yl)-phenyl]-5H-pyrrolo[2,3-b]pyrazin-7-yl}-2,2-dimethyl-propan-1-one]
275 to 277 °C	CC(C)(C)C(=O)c1c[nH]c2ncc(-c3cccc(S(N)(=O)=O)c3)nc12 [Example 144, 3-[7-(2,2-Dimethyl-propionyl)-5H-pyrrolo[2,3-b]pyrazin-2-yl]-benzenesulfonamide]
220 to 222 °C	CC(C)(C)C(=O)c1c[nH]c2ncc(-c3cccc(-n4cccc4)c3)nc12 [Example 232, 2,2-Dimethyl-1-[2-(3-pyrrol-1-yl-phenyl)-5H-pyrrolo[2,3-b]pyrazin-7-yl]-propan-1-one]
208 to 209 °C	CC1(C(=O)c2c[nH]c3ncc(-c4cccc(N5CCOCC5)c4)nc23)CCCCC1 [Example 153, (1-Methyl-cyclohexyl)-[2-(3-morpholin-4-yl-phenyl)-5H-pyrrolo[2,3-b]pyrazin-7-yl]-methanone]
234 to 236 °C	Cc1nnc(-c2cccc(-c3cnc4[nH]cc(C(=O)C5(C)CCCCC5)c4n3)c2)o1 [Example 155, (1-Methyl-cyclohexyl)-{2-[3-(5-methyl-[1,3,4]oxadiazol-2-yl)-phenyl]-5H-pyrrolo[2,3-b]pyrazin-7-yl}-methanone]
230 to 231 °C	CC1(C(=O)c2c[nH]c3ncc(-c4cccc(N5CCN(S(C)(=O)=O)CC5)c4)nc23)CCCCC1 [Example 181, {2-[3-(4-Methanesulfonyl-piperazin-1-yl)-phenyl]-5H-pyrrolo[2,3-b]pyrazin-7-yl}-(1-methyl-cyclohexyl)-methanone]
219.3 to 221.1 °C	CC(C)(C)C(=O)c1c[nH]c2ncc(-c3cccc(-n4cccn4)c3)nc12 [Example I-115, 2,2-Dimethyl-1-[2-(3-pyrazol-1-yl-phenyl)-5H-pyrrolo[2,3-b]pyrazin-7-yl]-propan-1-one]
143 to 144 °C	COCc1cccc(-c2cnc3[nH]cc(C(=O)C(C)(C)C)c3n2)c1 [Example I-130, 1-[2-(3-Methoxymethyl-phenyl)-5H-pyrrolo[2,3-b]pyrazin-7-yl]-2,2-dimethyl-propan-1-one]
291 to 303 °C	CC(C)(C)C(=O)c1c[nH]c2ncc(-c3cc(N4CCCC4)cc(N4CCCC4)c3)nc12 [Example 97, 1-[2-(3,5-Di-pyrrolidin-1-yl-phenyl)-5H-pyrrolo[2,3-b]pyrazin-7-yl]-2,2-dimethyl-propan-1-one]
176 to 177 °C	CC(C)(C)C(=O)c1c[nH]c2ncc(-c3cccc(CN4CCCCC4)c3)nc12 [Example 150, 2,2-Dimethyl-1-[2-(3-piperidin-1-ylmethyl-phenyl)-5H-pyrrolo[2,3-b]pyrazin-7-yl]-propan-1-one]
187 to 190 °C	COCC1CCCN1c1cccc(-c2cnc3[nH]cc(C(=O)NC(C)C)c3n2)c1 (stereo not drawn) [Example I-230, 2-[3-(2-Methoxymethyl-pyrrolidin-1-yl)-phenyl]-5H-pyrrolo[2,3-b]pyrazine-7-carboxylic acid isopropylamide]
236 to 237 °C	CCOc1cc(-c2cnc3[nH]cc(C(=O)C(C)(C)C)c3n2)cc(N2CCCC2)c1 [Example 262, 1-[2-(3-Ethoxy-5-pyrrolidin-1-yl-phenyl)-5H-pyrrolo[2,3-b]pyrazin-7-yl]-2,2-dimethyl-propan-1-one]
260 to 261 °C	CC(C)CC(=O)c1c[nH]c2ncc(-c3cccc(N4CCCC4)c3)nc12 [Example I-6, 3-Methyl-1-[2-(3-pyrrolidin-1-yl-phenyl)-5H-pyrrolo[2,3-b]pyrazin-7-yl]-butan-1-one]
